Reference: patent US4684650A, “Antihypertensive fluorophenylindanyl imidazolidinoneethylpiperazines” (priority 1984, dated 1987)
pIC50: −log10 of the molar value. Where two headings read alike, the source gives them in different places.

Key:
[1] = test system: methylphenidate induced stereotypies; experiment: Methylphenidate Antagonism; type: in vivo, mice; settings: for ED50: Mus musculus, ip, read-out: MePh antg. ED50, i.p., mice, 2 hours before methylphenidate 60 mg/kg s.c.
Method: The experiments were made as described by Pedersen and Christensen (1972) Acta Pharmacol. et Toxicol. 31, 488-496.--Briefly, test compounds or saline were injected i.p. 2 hours before methylphenidate, 60 mg/kg s.c. 3 pairs of mice were used for each dose level. After methylphenidate injection the mice were placed in observation cages for one hour. The cages were placed on corrugated paper, the corrugation facing upwards.

[2] = test system: 1-5-HTP-induced head shakes; experiment: 1-5-HTP-induced head shakes; type: in vivo; settings: Rattus norvegicus, sc, rats, 1-5-HTP 75 mg/kg i.p. after citalopram; read-out: 1-5-HTP-antg. ED50
Method: The rats were pretreated subcutaneously with test compound or saline simultaneously with or 90 min before injection of citalopram (10 mg/kg s.c.).
Each group consisted of 4-12 rats.

[3] = test system: spontaneous hypertensive rats (SHR); experiment: Antihypertensive effect in spontaneous hypertensive rats (SHR); type: in vivo; settings: for change in vivo at 5 mg/kg / ED10: Rattus norvegicus, ip; for change in vivo at 5 mg/kg: 1 h; for peripheral or central action: in words
Method: Antihypertensive effect in spontaneous hypertensive rats (SHR)
The femoral artery of male SHR is cannulated in anaestesia for blood pressure recordings. After a stabilization period of 11/2 h after discontinuation of the anaesthesia initial blood pressure curves are recorded and the systolic (SAP)/diastolic (DAP) pressure determined (-20, -10, 0, min. p.i.) Test substance is injected i.p. and the pressure curve recorded for one hour. The change in SAP/DAP is calculated in percent at mean initial values at different times (10, 20, 30, 40, 50 and 60 minutes after injection). At least two SHR are used per dose level. The maximum change is used for estimation of the drug effect.

5-HT pressor responses = experiment: Antagonism to 5-HT pressor responses in pithed rats; type: in vivo; settings: for change in vivo at 0.02 mg/kg / ED50: Rattus norvegicus, iv
Method: (§1) The rat is anaesthetized with ether, tracheotomized, artificial respired and pithed. The knitting-needle is introduced through the right orbita into the cranial cavity and passed through foramen magnum into the spinal canal as far as possible. The spinal cord is destroyed by turning the needle. After vagotomi both carotides are ligated and a catheter placed in the right one for pressure recording. The rat is adrenalectomized. […] The initial and post medication mean pressor effect is calculated, and the mean pressor effect is calculated as % of the initial value. Two to five preparations are employed for each dose level. The ED50 is determined.

[4] = test system: phenylephrine pressor responses; experiment: Antagonism to phenylephrine pressor responses in pithed rats; type: in vivo; settings: for change in vivo at […] / ED50: Rattus norvegicus, iv; for change in vivo at […]: read-out: Effects on pressor response of Phenylephrine, % eff. of […], pithed rats, […], jugular vein, read-out: Effects on pressor response of Phenylephrine, % eff. of 0.31 mg/kg; for ED50: read-out: Effects on pressor response of Phenylephrine, ED50
Method: as §1

5-HT2 receptors = target: T1, 5-HT2 receptors (Rattus norvegicus, UniProt P14842); experiment: 3H-spiroperidol binding to 5-HT2 receptors; settings: rat whole cortex, 0.5 nM 3H-spiroperidol, 0.3 μM sulpiride; read-out: 3H-SPI binding 5-HT2 IC50
T1 construct: Rat whole cortex was homogenized by an Ultra Turrax homogenizer; from tissue; host or cells: rat whole cerebral cortex, crude washed membranes
Method: ^3 H-spiroperidol binding to 5-HT2 receptors.
Rat whole cortex was homogenized by an Ultra Turrax homogenizer in 100 vol. of 50 mM Tris buffer pH 7.7. The homogenate was centrifuged at 20,000 g for 10 minutes at 4° C. The pellet was rehomogenized in another volume of buffer and centrifuged as mentioned above. The final pellet was rehomogenized in 50 mM Tris buffer pH 7.7 containing 120 mM NaCl, 5 mM KCl, 2 mM CaCl2 and 1 mM MgCl2 (ion mix) in a volume corresponding to 12.5 mg original tissue per ml.
Test drugs were dissolved in water; ^3 H-spiroperidol (NEN, 28-30 Ci/mmol) was diluted in 3 μM sulpiride, and 800 μl membrane suspension were added. Final concentration of ligand and sulpiride were 0.5 nM and 0.3 μM, respectively. The samples were incubated at 37° C. for 10 min. The samples were then filtered under vacuum through Whatman GF/B glass-fiber filters. The tubes were then rinsed with 5 ml incubation buffer, which was poured on the filters. The filters were finally washed twice with 5 ml buffer and placed in counting vials. After addition of 5 ml scintillation fluid (Lumagel) radioactivity was estimated by liquid scintillation counting. Non-specific binding was obtained by adding Mianserin (1 μM) to separate samples. Each drug was tested at least twice at 5 concentrations in triplicate. IC50-values were determined from log concentration-response curves.--The presence of sulpiride excluded binding to dopamine D-2 receptors.

[5] = 5 mg/kg ip, diastolic pressure (DAP), max change within one hour, read-out: Antihypertensive eff. SHR, max eff. in % of 5 mg/kg ip, DAP
[6] = 5 mg/kg ip, systolic pressure (SAP), max change within one hour, read-out: Antihypertensive eff. SHR, max eff. in % of 5 mg/kg ip, SAP
[7] = pithed rats, 0.02 mg/kg, jugular vein, read-out: Effects on pressor response of 5-HT, % eff. of 0.02 mg/kg
[8] = read-out: Antihypertensive eff. SHR, max eff. in % of 5 mg/kg ip, DAP, 5 mg/kg ip, diastolic pressure (DAP), max change within one hour
[9] = read-out: Antihypertensive eff. SHR, max eff. in % of 5 mg/kg ip, SAP, 5 mg/kg ip, systolic pressure (SAP), max change within one hour
[10] = read-out: Effects on pressor response of 5-HT, % eff. of 0.02 mg/kg, pithed rats, 0.02 mg/kg, jugular vein
[11] = 5 mg/kg ip, diastolic pressure (DAP), max change within one hour
[12] = 5 mg/kg ip, systolic pressure (SAP), max change within one hour
[13] = pithed rats, 0.02 mg/kg, jugular vein

T1 sequence (P14842 whole entry): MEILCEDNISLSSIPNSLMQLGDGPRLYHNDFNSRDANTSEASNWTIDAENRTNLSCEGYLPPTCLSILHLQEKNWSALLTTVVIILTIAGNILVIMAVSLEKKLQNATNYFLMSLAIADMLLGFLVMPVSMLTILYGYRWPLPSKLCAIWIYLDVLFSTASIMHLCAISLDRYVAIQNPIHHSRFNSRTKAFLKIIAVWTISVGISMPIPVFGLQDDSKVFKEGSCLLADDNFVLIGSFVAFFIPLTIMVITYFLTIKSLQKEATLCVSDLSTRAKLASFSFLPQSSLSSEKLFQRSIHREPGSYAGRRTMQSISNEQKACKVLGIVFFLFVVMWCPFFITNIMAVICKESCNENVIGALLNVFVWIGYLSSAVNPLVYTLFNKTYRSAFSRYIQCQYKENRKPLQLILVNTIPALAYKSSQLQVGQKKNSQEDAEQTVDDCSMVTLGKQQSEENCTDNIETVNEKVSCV

SMILES | ED50 [1] [µmol/kg] | ED50 [2] [µmol/kg] | pIC50 (5-HT2 receptors) | change in vivo at 5 mg/kg [3, 8] [%] | change in vivo at 5 mg/kg [3, 9] [%] | change in vivo at 0.02 mg/kg (5-HT pressor responses; [10]) [%] | further results
CC(C)c1ccc2c(c1)[C@H](N1CCN(CCN3CCNC3=O)CC1)C[C@H]2c1ccc(F)cc1 (relative stereo) [compound 5] | 24 | 1.7 |  |  |  |  | change in vivo at 5 mg/kg [3, 5]: -10%; change in vivo at 5 mg/kg [3, 6]: -9%; change in vivo at 0.02 mg/kg (5-HT pressor responses; [7]): -6%; change in vivo at […] [4]: -33%
O=C1NCCN1CCN1CCN([C@@H]2C[C@@H](c3ccc(F)cc3)c3ccc(C(F)(F)F)cc32)CC1 (relative stereo) [compound 6] | 1.8 | 0.29 | 8.00 | -14 | -10 | -52 | 
O=C1OCCN1CCN1CCN([C@@H]2C[C@@H](c3ccc(F)cc3)c3ccccc32)CC1 (relative stereo) [compound 7] | > 83 | 2.7 |  |  |  |  | change in vivo at 5 mg/kg [3, 5]: -19%; change in vivo at 5 mg/kg [3, 6]: -15%; change in vivo at 0.02 mg/kg (5-HT pressor responses; [7]): -4%; change in vivo at […] [4]: -18%
O=C1OCCN1CCN1CCN([C@@H]2C[C@@H](c3ccc(F)cc3)c3ccc(F)cc32)CC1 (relative stereo) [compound 8] | 18 | 1.3 |  |  |  |  | change in vivo at 5 mg/kg [3, 5]: -26%; change in vivo at 5 mg/kg [3, 6]: -20%; change in vivo at 0.02 mg/kg (5-HT pressor responses; [7]): -40%; ED50 (5-HT pressor responses; pithed rats, jugular vein, read-out: Effects on pressor response of 5-HT, ED50): 0.084 µmol/kg; change in vivo at […] [4]: -19%; ED50 ([4]; pithed rats, jugular vein): 4.35 µmol/kg; Phenylephr. antg./5-HT antg. (ratio) ([4]; pithed rats, ratio of phenylephrine ED50 to 5-HT ED50): 52
CN1CCN(CCN2CCN([C@@H]3C[C@@H](c4ccc(F)cc4)c4ccccc43)CC2)C1=O (relative stereo) [compound 11] | > 80 | 1.4 | 7.89 | -8 | -6 | -81 | 
CCN1CCN(CCN2CCN([C@@H]3C[C@@H](c4ccc(F)cc4)c4ccc(F)cc43)CC2)C1=O (relative stereo) [compound 12] | > 75 | 0.092 | 8.31 | 4 | 4 | -94 | peripheral or central action [3]: marked central effects
CC(C)N1CCN(CCN2CCN([C@@H]3C[C@@H](c4ccc(F)cc4)c4ccc(F)cc43)CC2)C1=O (relative stereo) [compound 13] | > 73 | 0.11 | 8.28 | -5 | -5 | -79 | peripheral or central action [3]: marked central effects
O=C1OCCN1CCCN1CCN([C@@H]2C[C@@H](c3ccc(F)cc3)c3ccc(F)cc32)CC1 (relative stereo) [compound 15] | 39 | 0.31 |  |  |  |  | change in vivo at 5 mg/kg [3, 5]: -18%; change in vivo at 5 mg/kg [3, 6]: -12%; change in vivo at 0.02 mg/kg (5-HT pressor responses; [7]): -31%; change in vivo at […] [4]: -7%
O=c1[nH]c2ccccc2n1CCN1CCN([C@@H]2C[C@@H](c3ccc(F)cc3)c3ccc(F)cc32)CC1 (relative stereo) [compound 16] | > 72 | 0.28 | 8.01 | -11 | -15 | -52 | 
O=C1CCCN1CCN1CCN([C@@H]2C[C@@H](c3ccc(F)cc3)c3ccc(F)cc32)CC1 (relative stereo) [compound 18] | 18 | 0.76 | 7.92 |  |  | -67 | Antihypertensive eff. SHR, max eff. in % of 5 mg/kg ip, SAP/DAP (inactive) ([3]; 5 mg/kg ip): I
O=c1[nH]c2ccccc2c(=O)n1CCN1CCN([C@H]2C[C@H](c3ccc(F)cc3)c3ccccc32)CC1 (relative stereo) [compound 19] | > 70 |  |  |  |  |  | Antihypertensive eff. SHR, max eff. in % of 5 mg/kg ip, DAP [3, 11]: -27%; Antihypertensive eff. SHR, max eff. in % of 5 mg/kg ip, SAP [3, 12]: -22%; Effects on pressor response of 5-HT, % eff. of 0.02 mg/kg (5-HT pressor responses; [13]): -35%; Effects on pressor response of Phenylephrine, % eff. of […] ([4]; pithed rats, jugular vein): -42%
CN1CCC(CCN2CCN([C@H]3C[C@H](c4ccc(F)cc4)c4ccccc43)CC2)C1=O (relative stereo) [compound 23] | > 61 | 1.4 | 7.80 |  |  |  | Antihypertensive eff. SHR, max eff. in % of 5 mg/kg ip, DAP [3, 11]: -43%; Antihypertensive eff. SHR, max eff. in % of 5 mg/kg ip, SAP [3, 12]: -31%; Effects on pressor response of 5-HT, % eff. of 0.02 mg/kg (5-HT pressor responses; [13]): -38%
O=C1NCCCN1CCN1CCN([C@@H]2C[C@@H](c3ccc(F)cc3)c3ccc(F)cc32)CC1 (relative stereo) [compound 25] | > 59 | 1.2 | 7.92 |  |  | -60 | Antihypertensive eff. SHR, max eff. in % of 5 mg/kg ip, SAP/DAP (inactive) ([3]; 5 mg/kg ip): I
Fc1ccc([C@@H]2C[C@@H](N3CCN(CCN4CCCNC4=S)CC3)c3cc(F)ccc32)cc1 (relative stereo) [compound 26] |  | 0.11 | 8.11 | -19 | -13 | -67 | 
Fc1ccc([C@@H]2C[C@@H](N3CCN(CCN4CCNC4=S)CC3)c3ccccc32)cc1 (relative stereo) [compound 27, Trans-1-[3-(4-fluorophenyl)-indan-1-yl]-4-[2-(imidazolidin-2-thion-1-yl)ethyl]piperazine] | > 61 | 0.48 | 8.33 | -29 | -18 | -71 | 
O=C1NCCN1CCN1CCN([C@@H]2C[C@@H](c3ccc(F)cc3)c3ccc(Cl)cc32)CC1 (single isomer, unassigned) [-20] |  | < 8.4 |  |  |  |  | MePh antg. ED50 ([1]; i.p., mice, 2 hours before methylphenidate 60 mg/kg s.c.): > 67 µmol/kg; Antihypertensive eff. SHR, max eff. in % of 5 mg/kg ip, DAP [3, 11]: -16%; Antihypertensive eff. SHR, max eff. in % of 5 mg/kg ip, SAP [3, 12]: -7%; Effects on pressor response of 5-HT, % eff. of 0.02 mg/kg (5-HT pressor responses; [13]): -11%; Effects on pressor response of Phenylephrine, % eff. of […] ([4]; pithed rats, jugular vein): +21%
O=C(c1ccc(F)cc1)C1CCN(CCn2c(=O)[nH]c3ccccc3c2=O)CC1 [Ketanserin, reference compound] | 101 | 0.58 |  | -24 | -32 | -46 | ED10 ([3]; read-out: Antihypertensive eff. SHR, ED10 DAP): 1.2 µmol/kg; ED10 ([3]; read-out: Antihypertensive eff. SHR, ED10 SAP): 1.6 µmol/kg; ED50 (5-HT pressor responses; read-out: Effects on pressor response of 5-HT, ED50, pithed rats, jugular vein): 0.033 µmol/kg; ED50 [4]: 3.6 µmol/kg
